Data on three compounds can be found in publication PMC11768184, “Non-Steroidal Anti-Inflammatory Drugs Are Inhibitors of the Intestinal Proton-Coupled Amino Acid Transporter (PAT1): Ibuprofen and Diclofenac Are Non-Translocated Inhibitors” (Pharmaceutics, 2025).

Usually IC50 stands for the concentration at which inhibition is half-maximal.

Common to all, as to assay type: cell-based
Assay [1] concerns the target T1, proton-coupled amino acid transporter (hPAT1) (Homo sapiens, UniProt Q7Z2H8).
T1 construct: gene SLC36A1
The assay is described as follows: concentration-dependent inhibition of [3H]-proline uptake in Caco-2 cells, pH […].

In assay [2] the target is T1, proton-coupled amino acid transporter (hPAT1). The assay is described as follows: TEVC in hPAT1-expressing Xenopus oocytes; [3H]-proline uptake inhibition and kinetics in Caco-2 cells, pH […].
Assay [3] shares this target. Nature of the assay: TEVC in hPAT1-expressing Xenopus oocytes; [3H]-proline uptake inhibition in Caco-2 cells, pH […].

T1 sequence (Q7Z2H8 whole entry): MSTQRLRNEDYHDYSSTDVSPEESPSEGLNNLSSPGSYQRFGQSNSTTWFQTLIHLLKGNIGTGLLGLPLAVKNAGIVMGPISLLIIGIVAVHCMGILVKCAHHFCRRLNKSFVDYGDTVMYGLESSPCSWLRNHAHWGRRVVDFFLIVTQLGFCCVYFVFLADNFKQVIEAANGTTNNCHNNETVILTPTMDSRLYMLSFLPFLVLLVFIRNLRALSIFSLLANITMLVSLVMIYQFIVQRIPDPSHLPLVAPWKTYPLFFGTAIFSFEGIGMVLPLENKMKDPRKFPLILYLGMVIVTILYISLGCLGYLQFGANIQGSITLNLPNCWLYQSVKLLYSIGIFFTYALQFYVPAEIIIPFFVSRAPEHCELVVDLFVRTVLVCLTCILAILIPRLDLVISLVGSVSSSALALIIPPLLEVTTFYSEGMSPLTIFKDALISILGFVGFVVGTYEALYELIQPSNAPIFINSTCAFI

With `CC(C(=O)O)c1ccc(-c2ccccc2)c(F)c1` (racemic) [flurbiprofen], in assay [1], the midpoint of inhibition, the IC50, lay at 280 µM.

As to `CC(C)Cc1ccc(C(C)C(=O)O)cc1` (racemic) [ibuprofen], in assay [2], the IC50 turned out to be 954 µM.

`O=C(O)Cc1ccccc1Nc1c(Cl)cccc1Cl` [diclofenac] had an IC50 in assay [3] of 272 µM.
